Experiments:
[1] = test system: ENaC-alpha mRNA in H441 cells; assay: siRNA delivery into H441 cells, ENaC-alpha mRNA quantified by bDNA assay; type: cell-based, human; details: AD-7007
Experimental: In order to test the potential of adding Histidine residues for improving the cross-membrane transport properties of peptides, we synthesized a modified ppTG20, termed ppTGHis herein, wherein 4 consecutive Histidine moieties were added to the C-terminus of ppTG20. We then compared the transport of siRNAs complexed with ppTG20 or ppTGHis into H441 cells, as evaluated by the ability of siRNAs to inhibit the expression of a gene constitutively expressed in H441 cells, ENaC-alpha. […]
For transfection with peptide/siRNA complexes, H441 cells were seeded at 1.5×10^4 cells/well on 96-well plates (Greiner Bio-One GmbH, Frickenhausen, Germany) in 75 μl of growth medium. […] Thereafter, the cells were lysed by adding 50 μl of lysis mixture (content of the QuantiGene bDNA-kit from Panomics, Inc., Fremont, USA) to each well containing 100 μl of growth medium at 53° C. for 30 min, and ENaC mRNA levels were subsequently quantified with the Quantigene Explore Kit (Panomics, Inc., Dumbarton Circle Fremont, USA, cat. No. QG-000-02) according to the manufacturer's protocol. Finally, chemoluminescence was measured in a Victor2-Light (Perkin Elmer, Wiesbaden, Germany) as RLUs (relative light units) and values obtained with the hENaC probeset were normalized to the respective GAPDH values for each well (probe sequences shown in Table 2 and Table 3). […]

eGFP-mRNA = assay: Influence of peptide/siRNA ratio on siRNA activity in HCT116 cells; type: cell-based; details: 250 nM siRNA
Experimental: The optimal ratio of (peptide):(anionic substance) for complex formation, was determined in section 3 above to lie in the range of 8:1 to 13:1 by titrating a fixed concentration of the anionic substance with increasing amounts of the peptide, and monitoring complex formation by electrophoresis of the mixture. To further validate and possibly narrow down the optimum ratio of peptide/anionic substance, an assay with a functional readout was performed. HCT116 cells were incubated with siRNA complexes as described above at concentrations such that the amount of siRNA in the incubation mixture corresponds to a 250 nM concentration of the siRNA, and the peptide/siRNA ratio was 8:1, 10:1, 12:1, or 14:1.

[2] = test system: E6AP mRNA in HCT116 cells; assay: siRNA AD-8724 delivery into HCT116 cells, inhibition of E6AP mRNA expression by bDNA assay; type: cell-based, human; details: for capacity for cross membrane transport of siRNA (quantity not given): 37° C., siRNA/peptide conc. 250 nM/2.5 μM
Experimental: All further experiments were carried out using HCT116 cells and inhibition of E6AP expression as readout.
HCT116-cells were obtained from the American Type Culture Collection (ATCC# CCL-247). They were cultured in McCoy's 5A medium (Biochrom AG, Berlin, Germany, Cat.# F1015) containing 10% fetal calf serum (FCS; Biochrom AG, Berlin, Germany, Cat.# S0115) and 2 mM L-Glutamin (Biochrom AG, Berlin, Germany, Cat.#: K0283) (standard growth medium). For incubation with peptide/siRNA, complexes, the medium was replaced by serum-free McCoy's 5A medium containing 2 mM L-Glutamin (serum free medium). After incubation with complexes for 4 h, McCoy's 5A medium containing 30% fetal calf serum and 2 mM L-Glutamin (triple FCS medium) was added to restore an overall 10% FCS in the medium.
The E6AP-specific siRNA denoted AD-8724 herein was used, having the following sequences: antisense strand: 5′-ucacauuccacguuaggugTsT-3′ (SEQ ID NO:51), sense strand 5′-caccuaacguggaaugugaTsT-3′; (SEQ ID NO:52; lower case letters: ribonucleotides; s: phosphorothioate backbone linkage). As a negative control, an siRNA specific for eGFP, denoted AD-5107 herein, was used, having the following sequences: antisense strand: 5′-aagucgugcugcuucauguggOMesuOMesc-3′ (SEQ ID NO:19), sense strand 5′-[…]-3′ (SEQ ID NO:18; lower case letters: ribonucleotides; subscript OMe: 2′-O-methyl-ribonucleotide; s: phosphorothioate backbone linkage). In addition to the non-specific control siRNA AD-5107, mock transfected cells treated with standard growth medium only were used as negative controls. As a positive control, AD-8724 was transfected into the cells using Lipofectamine2000™ (Invitrogen, Karlsruhe, Germany, Cat. No. 11668-019). As a further control, AD-5107 was transfected into cells using Lipofectamine2000™. All assays were performed in quadruplicates.
SiRNA/peptide complexes were prepared by mixing a solution of the siRNA in deionized water with a solution of the peptide in deionized water at the appropriate concentrations to give the desired ratio of siRNA/peptide at the desired concentration of the complex. The mixture was incubated at room temperature for 30 min and kept at 4° C. until use, and used within 24 h.
For transfections with siRNA/peptide complexes, 1.5×10^5 HCT116-cells per well in 150 μl standard growth medium were seeded into polystyrene 96 well plates and grown for 24 h at 37° C. in an atmosphere containing 5% CO2. The medium was removed by aspiration, and 90 μl serum-free medium and 10 μl of siRNA/peptide complex solution were added. Cells were incubated for 4 h at 37° C./5% CO2, 50 μl triple FCS medium were added, and the cells incubated for another 20 h under identical conditions. Subsequently, E6AP mRNA content was determined as described below.
For Lipofectamine2000™ transfections, 0.5 μl Lipofectamine2000™ were mixed with 12 μl OptiMem™ (Invitrogen, Karlsruhe, Germany, Cat. No. 11058-021) and incubated for 15 min. 1 μl of a 5 μM solution of the respective siRNA in PBS (Biochrom AG, Berlin, Germany, Cat-No: L182-05) were added to 11.5 μl OptiMeM™, mixed with the Lipofectamine2000™/OptiMem™ solution, and incubated for further 15 min. 1.5×10^5 HCT116-cells per well in 150 μl standard growth medium were grown for 24 h as described above, the growth medium removed from the cells by aspiration, and 75 μl fresh standard growth medium and the 25 μl of the siRNA/Lipofectamine2000™ mix were added to the well, to give a final siRNA concentration of 50 nM. The cells were incubated for 24 h at 37° C./5% CO2 and E6AP mRNA concentration determined.
The QuantiGene™ bDNA-kit from Panomics, Inc., Fremont, USA, was used according to manufacturer's instructions. Briefly, cells were lysed by adding 50 μl of Lysis Mixture (from QuantiGene bDNA-kit) to each well and incubation at 53° C. for 1 h. […]

[3] = test system: E6AP mRNA in HCT116 cells; assay: as above; type: cell-based, human; details: 4° C., siRNA/peptide conc. 250 nM/2.5 μM
[4] = AD-8724, siRNA/peptide conc. 25 nM/250 nM
[5] = AD-8724, siRNA/peptide conc. 250 nM/2.5 μM
[6] = AD-8724, siRNA/peptide conc. 1 μM/10 μM
[7] = siRNA AD-8724 250 nM, molar peptide/siRNA ratio 12.5:1

With “GLFRALLRLLRSLWRLLLRAHHHH [ppTGHis, ppTG20 with 4 histidines added to the C-terminus]” the “transfection efficiency and resulting siRNA activity compared with Lipofectamine” value [1] was “comparable to that of Lipofectamine™” and the “transfection efficiency and resulting siRNA activity relative to ppTG20” value [1] was “approximately 10 fold”.

In the case of HLFRALLRLLRHLWRLLLRA [AP-10], the “Remaining eGFP-mRNA in % of mock-transfected controls” value (from here on “Remaining eGFP-mRNA in %”) (eGFP-mRNA; peptide/siRNA ratio 8:1) was 42 ± 3%, the “Remaining eGFP-mRNA in %” value (eGFP-mRNA; peptide/siRNA ratio 10:1) was 24 ± 4% and the “Remaining eGFP-mRNA in %” value (eGFP-mRNA; peptide/siRNA ratio 12:1) was 24 ± 2%. For the same sequence, the “Remaining eGFP-mRNA in %” value (eGFP-mRNA; peptide/siRNA ratio 14:1) was 32 ± 4%, the “capacity for cross membrane transport of siRNA (quantity not given)” value (“capacity … (quantity not given)” for short) [2] was 13 ± 8% and the “remaining E6AP mRNA (in % of mock)” value [2, 4] was 98 ± 8%. For the same sequence, the “remaining E6AP mRNA (in % of mock)” value [2, 5] was 28 ± 4%, the “remaining E6AP mRNA (in % of mock)” value [2, 6] was 17 ± 1% and the “remaining E6AP mRNA (in % of mock)” value [2, 7] was 41 ± 21%. The “capacity … (quantity not given)” value [3] was 81 ± 16%.

RLFRALLRLLRSLWRLLRRA [AP-4] was tested, and the “Remaining eGFP-mRNA in %” value (eGFP-mRNA; peptide/siRNA ratio 8:1) was 23 ± 6%, the “Remaining eGFP-mRNA in %” value (eGFP-mRNA; peptide/siRNA ratio 10:1) was 18 ± 6% and the “Remaining eGFP-mRNA in %” value (eGFP-mRNA; peptide/siRNA ratio 12:1) was 52 ± 6%. The “Remaining eGFP-mRNA in %” value (eGFP-mRNA; peptide/siRNA ratio 14:1) was 43 ± 4%, the “capacity … (quantity not given)” value [2] was 30 ± 5% RT and the “remaining E6AP mRNA (in % of mock)” value [2, 4] was 96 ± 24%. For the same sequence, the “remaining E6AP mRNA (in % of mock)” value [2, 5] was 49 ± 11%, the “remaining E6AP mRNA (in % of mock)” value [2, 6] was 37 ± 9% and the “remaining E6AP mRNA (in % of mock)” value [2, 7] was 34 ± 6%. The “capacity … (quantity not given)” value [3] was 56 ± 4%.

— patent US7906484B2, “Complex for transferring an anionic substance into a cell” (Alnylam Pharmaceuticals, Inc., priority 2006, dated 2011)
